The results in this text go back to US8071119B2, “Controlled release implantable dispensing device and method” (Sustained Nano Systems LLC, priority 2007, dated 2011).

Like-named read-outs stand apart in the source and are kept apart here.

Data set [1] can be described thus: longer term subconjunctival implantation of pellets in rabbit ocular tissues (HPLC tissue levels, histology). Type of data set: in vivo. As to conditions: other: subconjunctival implantation of a pellet, 13 weeks after implantation in right eye, 301,568 psi pellet. The procedure:
A study was performed to assess the effects of longer term implantation of cylindrical pellets compressed at 301,568 psi, measuring 5 mm length×3 mm diameter, in rabbit ocular tissues. A new 3-mm diameter mold (prepared and adapted to fit/interchange with the supporting hardware of the 7.87 mm diameter mold) was utilized to prepare the smaller pellets required for the rabbit eye. Due to dimensional considerations and the need to reconcile with the pressure applied for preparing the pellets and the mechanical tolerance of the mold, the incremental pressurization approach, described above was utilized, an initial pressure of 1000 lb was applied; thereafter, ˜500 lb of additional pressure was applied approximately every 5 minutes until it reached about 300,000 psi range. The height of the pellets (cylinders) produced were about 5 mm. The pressure noted was 301,568 psi. Similar to the pig model as described above, the pellets were implanted beneath the conjunctiva in the superotemporal quadrant of the right eyes. At stipulated time-points, the rabbits were euthanized to harvest the ocular tissues. Accordingly, the implant sites were dissected out and the rest of the tissues were further separated into: sclera/conjunctiva, cornea and lens. FIG. 7 depicts the histology (cryosectioned, H&E stained) of an implant site 9 weeks post-op.
The dexamethasone levels in rabbit ocular tissue is determined after 13 weeks and is reported in nanograms of dexamethasone per mg of tissue in Table 1. The sclera/conjunctiva, cornea and lens are recovered, processed, and extracted. Dexamethasone levels are determined by HPLC assay. Table 1 reports the dexamethasone recovered from the rabbit ocular tissues after 13 weeks of implantation, which is the longest duration for this study series.

The nature of data set [2]: dexamethasone levels after subconjunctival implantation in pig eyes. As to conditions: pigs, after subconjunctival implantation of the 211,685 psi disc. Type of data set: in vivo. The procedure: A cylindrical shaped dosage form is made using dexamethasone and the polymer system was prepared as described above. The dosage form measures 7.87 mm in diameter, has a thickness of 1 mm, a weight of 60 mg and a drug loading of 6.5%. […] The dosage form is placed beneath the conjunctiva in the super temporal quadrant of the eyes of five pigs. […]

Consider `C[C@@H]1C[C@H]2[C@@H]3CCC4=CC(=O)C=C[C@]4(C)[C@@]3(F)[C@@H](O)C[C@]2(C)[C@@]1(O)C(=O)CO` [dexamethasone], for which the concentration at 13 weeks in data set [1] (left lens (eye without implant), read-out: dexamethasone level in Left Lens) stood at 18300 ng/g; in data set [1] (left sclera/conjunctiva (eye without implant), read-out: dexamethasone level in Left Sclera/Conjunctiva), 20300 ng/g; in data set [1] (right cornea (implanted eye), read-out: dexamethasone level in Right Cornea) it was 40400 ng/g; in data set [1] (right lens (implanted eye), read-out: dexamethasone level in Right Lens) it was 78100 ng/g; in data set [1] (right sclera/conjunctiva (implanted eye), read-out: dexamethasone level in Right Sclera/Conjunctiva), 415000 ng/g. The dexamethasone in plasma entry in data set [2] is reported as “no detectable dexamethasone”.
